In US8951964B2, “Phenanthridine macrocyclic hepatitis C serine protease inhibitors” (priority 2010, dated 2015):
Read-outs that look alike come from different tables or passages of the source.

What was measured:
Assay type in all cases: cell-based, HCV
[1] = tested on: genotype 1a transient replicon (1a-H77); assay: 1a transient replicon (luciferase reporter); conditions: HuH-7 cells, 5% FBS
[2] = tested on: genotype 1b replicon (1b-Con1, 1b-N); assay: 1b stable replicon (luciferase reporter); conditions: HuH-7 cells, 5% FBS
[3] = tested on: genotype 1b transient replicon; assay: 1b transient replicon (luciferase reporter); conditions: HuH-7 cells, 5% FBS
[4] = tested on: genotype 3a NS3 gene in transient replicon; assay: 3a transient replicon (luciferase reporter)
[5] = tested on: genotype 1a replicon (1a-H77); assay: 1a stable replicon (luciferase reporter); conditions: HuH-7 cells, 5% FBS
[6] = Hepatitis C virus, Huh-7, read-out: 3a transient replicon (nM)
[7] = Hepatitis C virus, Huh-7, luciferase reporter

Structure (SMILES) | EC50 ([1]; Hepatitis C virus) [pM] | EC50 ([2]; Hepatitis C virus) [pM] | EC50 ([3]; Hepatitis C virus) [pM] | EC50 [4, 6] [nM] | EC50 [5, 7] [pM] | EC50 [1] [pM] | EC50 [2] [pM] | EC50 [3] [pM] | EC50 ([4]; read-out: 3a transient replicon, luciferase reporter, HuH-7 cells, 5% FBS) [nM] | EC50 ([5]; luciferase reporter) [pM]
Cc1cc(C(=O)N[C@H]2CCCCC/C=C\[C@@H]3C[C@@]3(C(=O)NS(=O)(=O)C3CC3)NC(=O)[C@@H]3C[C@@H](Oc4nc5ccccc5c5cc(F)ccc45)CN3C2=O)no1 | < 100 | 100 to 500 | 100 to 500 | > 1 | 100 to 500 | – | – | – | – | –
Cn1ccc(C(=O)N[C@H]2CCCCC/C=C\[C@@H]3C[C@@]3(C(=O)NS(=O)(=O)C3(C)CC3)NC(=O)[C@@H]3C[C@@H](Oc4nc5cc(OC(F)(F)F)ccc5c5ccccc45)CN3C2=O)n1 | < 100 | < 100 | 100 to 500 | 0.1 to 0.5 | 100 to 500 | – | – | – | – | –
Cn1ccc(C(=O)N[C@H]2CCCCC/C=C\[C@@H]3C[C@@]3(C(=O)NS(=O)(=O)C3CC3)NC(=O)[C@@H]3C[C@@H](Oc4nc5cc(F)ccc5c5cc(OC(F)(F)F)ccc45)CN3C2=O)n1 | 100 to 500 | < 100 | 100 to 500 | > 1 | 500 to 1000 | – | – | – | – | –
O=C(N[C@H]1CCCCC/C=C\[C@@H]2C[C@@]2(C(=O)NS(=O)(=O)C2CC2)NC(=O)[C@@H]2C[C@@H](Oc3nc4cc(F)ccc4c4cc(F)ccc34)CN2C1=O)c1cscn1 [drawing 124] | 100 to 500 | 100 to 500 | 100 to 500 | > 1 | 500 to 1000 | – | – | – | – | –
O=C(N[C@H]1CCCCC/C=C\[C@@H]2C[C@@]2(C(=O)NS(=O)(=O)C2CC2)NC(=O)[C@@H]2C[C@@H](Oc3nc4cc(F)ccc4c4cc(F)ccc34)CN2C1=O)c1cscn1 [drawing 125] | – | – | – | – | – | 100 to 500 | 100 to 500 | 100 to 500 | > 1 | > 1000
